# Experiments:
# [1] = tested on: M. dispar NCTC 10125; experiment: in vitro MIC, anti-mycoplasmal activity; format: cell-based; details: Friis' broth, microtiter method
# From the text: (§1) Tables 3 and 4 show the in vitro MIC values (μg/ml) of the compounds of Examples 1 to 9 against a number of mycoplasma organisms, determined in Friis' broth using the microtiter method.
# [2] = tested on: M. suipneumoniae J2206/183b; experiment: in vitro MIC, anti-mycoplasmal activity; format: cell-based; details: Mesomycoplasma hyopneumoniae, Friis' broth, microtiter method
# From the text: as §1
# [3] = tested on: M. fermentans MWKL4; experiment: in vitro MIC, anti-mycoplasmal activity; format: cell-based; details: Mycoplasmopsis fermentans, Friis' broth, microtiter method
# From the text: as §1
# [4] = tested on: M. pulmonis JB; experiment: in vitro MIC, anti-mycoplasmal activity; format: cell-based; details: Mycoplasmopsis pulmonis, Friis' broth, microtiter method
# From the text: as §1
# [5] = tested on: Staph. aureus B4; experiment: MIC, veterinary bacteria; format: cell-based; details: Staphylococcus aureus; Staph. aureus B4; read-out: M.I.C.
# [6] = tested on: Bacillus subtilis 6633; experiment: MIC, serial dilution in nutrient agar, human bacteria; format: cell-based; details: Bacillus subtilis 6633; nutrient agar containing 5% chocolated horse blood; read-out: M.I.C.
# [7] = tested on: Past. multocida PAI; experiment: MIC, veterinary bacteria; format: cell-based; details: Pasteurella multocida; Past. multocida PAI; read-out: M.I.C.
# [8] = tested on: Strep. dysgalactiae SPD 1; experiment: MIC, veterinary bacteria; format: cell-based; details: Streptococcus dysgalactiae, SPD1; Strep. dysgalactiae SPD 1; read-out: M.I.C.
# [9] = tested on: Haemophilus influenzae Wy21; experiment: MIC, serial dilution in nutrient agar, human bacteria; format: cell-based; details: Haemophilus influenzae Wy21; nutrient agar containing 5% chocolated horse blood; read-out: M.I.C.
# [10] = tested on: Haemophilus influenzae Q1; experiment: as above; format: cell-based; details: nutrient agar containing 5% chocolated horse blood
# [11] = tested on: Staph. aureus 152; experiment: MIC, veterinary bacteria; format: cell-based; details: Staphylococcus aureus
# [12] = tested on: Strep. pneumoniae CN33; experiment: MIC, serial dilution in nutrient agar, human bacteria; format: cell-based; details: Streptococcus pneumoniae; Strep. pneumoniae CN33; nutrient agar containing 5% chocolated horse blood; read-out: M.I.C.
# [13] = tested on: Pasteurella multocida 1633; experiment: as above; format: cell-based; details: nutrient agar containing 5% chocolated horse blood
# [14] = tested on: Bord. bronchiseptica BO9; experiment: MIC, veterinary bacteria; format: cell-based; details: Bordetella bronchiseptica, BO9
# [15] = tested on: Neisseria flavescens 8263; experiment: MIC, serial dilution in nutrient agar, human bacteria; format: cell-based; details: nutrient agar containing 5% chocolated horse blood
# [16] = tested on: Past. haemolytica PA5; experiment: MIC, veterinary bacteria; format: cell-based; details: Mannheimia haemolytica, PA5
# [17] = tested on: Staph. aureus Russell; experiment: MIC, serial dilution in nutrient agar, human bacteria; format: cell-based; details: Staphylococcus aureus; Staph. aureus Russell; nutrient agar containing 5% chocolated horse blood; read-out: M.I.C.
# [18] = tested on: Strep. uberis SPU 1; experiment: MIC, veterinary bacteria; format: cell-based; details: Streptococcus uberis, SPU1; Strep. uberis SPU 1; read-out: M.I.C.
# [19] = tested on: M. pneumoniae 427a; experiment: in vitro MIC, anti-mycoplasmal activity; format: cell-based; details: Mycoplasmoides pneumoniae, Friis' broth, microtiter method
# [20] = tested on: Staph. aureus Oxford; experiment: MIC, serial dilution in nutrient agar, human bacteria; format: cell-based; details: Staphylococcus aureus; Staph. aureus Oxford; nutrient agar containing 5% chocolated horse blood; read-out: M.I.C.
# [21] = tested on: certain Gram-positive and Gram-negative organisms; details: statement about monic acid A and its esters, earlier British applications; cited from earlier work
smiles,measurement,setting,value
"COC(=O)CNC(=O)C=C(C)CC1OCC(CC2OC2C(C)C(C)O)C(O)C1O (stereo not drawn) [Example 3, Methoxycarbonylmethylamide of monic acid A]",MIC,[1],< 0.5 µg/mL
same,MIC,[2],7.8 µg/mL
same,MIC,[3],< 0.5 µg/mL
same,MIC,[4],62.5 µg/mL
same,MIC,[5],40 µg/mL
same,MIC,[6],25 µg/mL
same,MIC,[7],10 µg/mL
same,MIC,[8],1.25 µg/mL
same,MIC,[9],1.2 µg/mL
same,MIC,[10],1.2 µg/mL
same,MIC,[11],> 80 µg/mL
same,MIC,[12],25 µg/mL
same,MIC,[13],12.5 µg/mL
same,MIC,[14],5 µg/mL
same,MIC,[15],25 µg/mL
same,MIC,[16],5 µg/mL
same,MIC,[17],125 µg/mL
same,MIC,[18],5 µg/mL
same,MIC,[19],250 µg/mL
same,MIC,[20],25 µg/mL
CC(=CC(=O)O)CC1OCC(CC2OC2C(C)C(C)O)C(O)C1O (stereo not drawn) [monic acid A],antibacterial activity,[21],does not appear to have antibacterial activity

# Reference: patent publication US4200635A, “Antibacterially active amides” (Beecham Group Limited, priority 1977, dated 1980)
